Results: ChEMBL document CHEMBL1141887, “Design and synthesis of (E)-1,1,2-triarylethenes: novel inhibitors of the cyclooxygenase-2 (COX-2) isozyme” (Bioorg Med Chem Lett, 2005)

target: T1, Prostaglandin G/H synthase 1 (Ovis aries, UniProt P05979); test: In vitro inhibitory concentration against ovine Cyclooxygenase-1
T1 sequence (P05979 whole entry): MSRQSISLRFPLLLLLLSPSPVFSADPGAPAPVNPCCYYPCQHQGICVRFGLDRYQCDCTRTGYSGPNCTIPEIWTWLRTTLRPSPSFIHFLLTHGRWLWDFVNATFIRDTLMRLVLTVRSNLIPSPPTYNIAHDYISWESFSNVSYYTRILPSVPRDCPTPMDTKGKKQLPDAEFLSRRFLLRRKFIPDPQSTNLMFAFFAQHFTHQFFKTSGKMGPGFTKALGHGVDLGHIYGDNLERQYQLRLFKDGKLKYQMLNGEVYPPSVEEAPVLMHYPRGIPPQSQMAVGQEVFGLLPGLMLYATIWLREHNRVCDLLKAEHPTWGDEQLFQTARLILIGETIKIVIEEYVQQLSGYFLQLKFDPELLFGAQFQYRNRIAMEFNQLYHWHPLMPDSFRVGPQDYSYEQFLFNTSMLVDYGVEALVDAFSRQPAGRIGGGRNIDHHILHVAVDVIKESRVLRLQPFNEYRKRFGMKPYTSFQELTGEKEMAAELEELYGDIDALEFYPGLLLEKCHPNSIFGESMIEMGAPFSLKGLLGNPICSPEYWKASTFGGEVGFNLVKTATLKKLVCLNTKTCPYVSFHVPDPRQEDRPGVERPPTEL

SMILES | IC50 [µM]
CS(=O)(=O)c1ccc(C=C(c2ccc(F)cc2)c2ccc(F)cc2)cc1 | > 100
CS(=O)(=O)c1ccc(/C(=C/c2ccccc2)c2ccccc2)cc1 | 0.14
CS(=O)(=O)c1ccc(C=C(c2ccc(Cl)cc2)c2ccc(Cl)cc2)cc1 | > 100
CS(=O)(=O)c1ccc(/C(=C/c2ccc(F)c(F)c2)c2ccccc2)cc1 | > 100

Other lines, results leading:

IC50 [µM] | SMILES
> 100 | CS(=O)(=O)c1ccc(/C(=C/c2ccc(F)cc2)c2ccccc2)cc1
> 100 | Cc1ccc(/C=C(\c2ccccc2)c2ccc(S(C)(=O)=O)cc2)cc1
> 100 | Cc1ccc(C(=Cc2ccc(S(C)(=O)=O)cc2)c2ccc(C)cc2)cc1
> 100 | CS(=O)(=O)c1ccc(/C(=C/c2ccc(Cl)cc2)c2ccccc2)cc1
